Assay results: US5766896A, “Method of producing iodine by use of a copper containing oxidase enzyme” (Novo Nordisk Biotech Inc., priority 1994, dated 1998)
Where two headings read alike, the source gives them in different places.

How the values were obtained:
Myceliophthora laccase = Myceliophthora laccase (Thermothelomyces thermophilus, UniProt G2QG31); assay: chloride inhibition of Myceliophthora laccase; format: biochemical; conditions: read-out: inhibition constant (chloride)
[1] = biological target: T1, recombinant Myceliophthora thermophila laccase (r-MtL) (Thermothelomyces thermophilus, UniProt G2QG31); assay: r-MtL-catalyzed I^- oxidation; format: biochemical; conditions: pH 3.4
T1 sequence (G2QG31 48-602): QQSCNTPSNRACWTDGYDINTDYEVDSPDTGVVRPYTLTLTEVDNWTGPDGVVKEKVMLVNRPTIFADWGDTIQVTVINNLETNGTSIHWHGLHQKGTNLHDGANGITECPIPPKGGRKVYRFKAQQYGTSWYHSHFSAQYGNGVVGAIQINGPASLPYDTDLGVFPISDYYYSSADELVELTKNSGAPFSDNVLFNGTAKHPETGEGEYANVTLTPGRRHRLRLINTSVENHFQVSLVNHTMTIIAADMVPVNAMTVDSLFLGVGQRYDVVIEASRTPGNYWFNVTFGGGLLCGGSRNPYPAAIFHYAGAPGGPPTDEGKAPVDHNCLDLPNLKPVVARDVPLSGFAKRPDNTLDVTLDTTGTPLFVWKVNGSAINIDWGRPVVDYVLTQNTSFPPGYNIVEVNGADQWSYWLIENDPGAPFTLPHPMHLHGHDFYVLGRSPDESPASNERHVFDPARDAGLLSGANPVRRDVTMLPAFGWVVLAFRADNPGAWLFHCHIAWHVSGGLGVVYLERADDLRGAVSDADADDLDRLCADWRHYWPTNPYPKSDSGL
Protocol: (§1) Enzymatic assays for determining oxidation of I^- are conducted in B & R buffer containing from 1-20 nM MtL (subunit concentration) and 10 to 200 mM Nal at 20° C. for 5-10 minutes. The extinction coefficient of 26 mM^-1 cm^-1 is used to calculate rate. Oxidation of I^- is spectrally monitored at 340 or 353 nm and the spectrum of the oxidation product is found identical to that of I3 -(Hosoya, Biochem. (Tokyo) 53: 381, 1963). Kinetic parameters are extracted by a non-linear regression fitting (Prism, GraphPad) of rate and concentration data to the equation of rate=Vmax *[substrate]/Km +[substrate].

[2] = biological target: T2, bilirubin oxidase (Myrothecium verrucaria) (Albifimbria verrucaria, UniProt Q12737); assay: bilirubin oxidase-catalyzed I^- oxidation; format: biochemical; conditions: optimal pH of 4.1
T2 construct: purchased Sigma
T2 sequence (Q12737 39-572): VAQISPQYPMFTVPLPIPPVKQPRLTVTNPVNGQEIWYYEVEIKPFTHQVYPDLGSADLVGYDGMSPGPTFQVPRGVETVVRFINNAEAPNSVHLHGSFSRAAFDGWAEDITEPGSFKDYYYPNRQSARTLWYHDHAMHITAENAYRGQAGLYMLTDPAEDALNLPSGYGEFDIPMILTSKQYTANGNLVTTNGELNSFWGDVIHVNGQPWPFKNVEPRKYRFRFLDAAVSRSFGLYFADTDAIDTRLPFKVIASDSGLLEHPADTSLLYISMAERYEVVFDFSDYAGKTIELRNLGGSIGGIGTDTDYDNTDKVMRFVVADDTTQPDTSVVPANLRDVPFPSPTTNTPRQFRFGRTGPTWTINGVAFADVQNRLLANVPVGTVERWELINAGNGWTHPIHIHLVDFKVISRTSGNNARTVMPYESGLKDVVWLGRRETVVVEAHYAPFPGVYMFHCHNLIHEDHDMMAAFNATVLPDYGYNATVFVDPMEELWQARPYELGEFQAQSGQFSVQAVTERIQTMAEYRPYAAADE
Protocol: as §1
(§2) Ascorbate oxidase, ceruloplasmin, bilirubin oxidase, and tyrosinase at concentrations up to μM level are also tested under similar conditions for I^- oxidation catalysis.

tyrosinase (mushroom) [3] = assay: tyrosinase-catalyzed I^- oxidation; format: biochemical; conditions: optimal pH of 2.7
Protocol: as §1, §2

[4] = biological target: T1, recombinant Myceliophthora thermophila laccase (r-MtL); assay: r-MtL-catalyzed ABTS oxidation; format: biochemical
Protocol: as §1

tyrosinase (mushroom) [5] = conditions: pH 2.7
Text: Chemicals used as buffers and substrates are commercial products of at least reagent grade. Ascorbate oxidase (Cucurbita species), ceruloplasmin (porcine plasma), bilirubin oxidase (Myrothecium verrucaria) and tyrosinase (mushroom) are purchased from Sigma and used as received. The contents of the enzymes in lyophilized powder or solution are confirmed by uv-visible absorption and published extinction coefficients. The stated activity of ascorbate oxidase is confirmed with ascorbic acid.
The extinction coefficient of 36 mM^-1 cm^-1 is used to calculate the rate. Spectroscopic assays are conducted on either a spectrophotometer (Shimadzu UV160) or a microplate reader (Molecular Devices). Britton & Robinson (B & R) buffers are prepared according to a standard protocol (Quelle, Biochemisches Taschenbuch, H. M. Raven, II. Teil, S.93 u. 102, 1964).

## Cl [chloride]
Myceliophthora laccase
  Ki: ~70 mM

## I [I^-, iodide]
[1]
  Vmax (I^- oxidation): 2.7±0.2 turnover per minute
[2]
  Vmax (I^- oxidation): 1.7±0.1 turnover per minute
Tyrosinase (mushroom) [3]
  Km: ~100 mM
  Vmax (I^- oxidation): ca. 0.1 turnover per minute

## CCn1c(=NN=c2sc3cc(S(=O)(=O)O)ccc3n2CC)sc2cc(S(=O)(=O)O)ccc21 [ABTS, 2,2'-azinobis-(3-ethylbenzthiazoline-6-sulfonic acid)]
[4]
  Km of ABTS, fold smaller in comparison with I^-: ~ 10^3 fold
  Vmax of ABTS, fold larger in comparison with I^-: ~ 10^3 fold
Tyrosinase (mushroom) [5]
  Vmax (ABTS oxidation): 3.1±0.1 turnover per minute
Tyrosinase (mushroom) [5]; read-out: Km (ABTS)
  Km: 0.18 ± 0.01 mM
